Key:
[1] = biological target: T1, R15A-PP1c holophosphatase (R15A^325-636-PP1c) (Homo sapiens, UniProt O75807); assay: Holophosphatase SPR, compounds binding to reconstituted R15A-PP1c; details: holophosphatase reconstituted on SA chip; 20°C; mean ± SD; read-out: KD, steady-state affinity for R15A-PP1c
T1 construct: cDNAs encoding amino acids 325-636 of R15A and 340-698 of R15B were cloned into pMAL-c5x; made in house; host or cells: R15A: E. coli BL21-Gold (DE3) pLysS; bio-PP1c: Sf9 insect cells (baculovirus)
T1 sequence (O75807 325-636, stated change not applied): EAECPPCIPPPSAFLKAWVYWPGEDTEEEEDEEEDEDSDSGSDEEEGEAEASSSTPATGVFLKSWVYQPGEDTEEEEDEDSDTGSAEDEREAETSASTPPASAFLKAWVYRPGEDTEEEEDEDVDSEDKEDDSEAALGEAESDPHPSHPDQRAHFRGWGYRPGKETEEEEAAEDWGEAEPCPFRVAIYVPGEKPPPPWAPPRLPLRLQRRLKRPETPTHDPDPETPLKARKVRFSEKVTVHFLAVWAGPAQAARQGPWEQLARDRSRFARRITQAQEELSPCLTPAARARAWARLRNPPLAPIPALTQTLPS
T1 sequence (P36873 1-322 partner): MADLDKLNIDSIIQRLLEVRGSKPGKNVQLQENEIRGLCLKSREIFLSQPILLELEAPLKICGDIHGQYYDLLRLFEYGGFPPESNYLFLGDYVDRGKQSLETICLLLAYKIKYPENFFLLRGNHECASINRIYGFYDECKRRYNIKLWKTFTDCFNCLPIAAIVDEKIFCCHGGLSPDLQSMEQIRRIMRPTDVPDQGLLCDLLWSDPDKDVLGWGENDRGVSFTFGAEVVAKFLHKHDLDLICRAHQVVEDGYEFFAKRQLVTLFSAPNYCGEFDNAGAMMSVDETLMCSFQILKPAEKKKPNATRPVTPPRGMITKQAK
Method: Small molecules were stored as 50 mM stock solutions in 100% DMSO. […] If necessary the concentration range was adjusted to accurately determine the KD depending on the initial results. […] This was followed by 1 min stabilization period, to wash off any unspecific binding. […] After each dilution series, the surface was regenerated using 3 M NaCl for 90 s. […] In order to be able to correct for small variations in DMSO concentration between samples, eight solvent samples ranging from 0.06 to 8% DMSO were injected every 50th cycle. The flow cell temperature was 20°C.

HeLa cells = assay: Assessment of translation rates (35S-methionine), HeLa cells; format: cell-based, human; details: HeLa cells
Method: HeLa or MEF cells (90,000 cells/mL) were plated in 12-well plates (1 mL/well). The following day cells were treated as indicated; the medium was removed, fresh medium containing compound added and incubated at 37°C for the times indicated. The time course was performed in reverse order to facilitate labeling all samples at the same time. After the treatment the cells were labeled with 100 μCi/mL ^35S-methionine (Hartmann Analytic) for 10 min at 37°C (300 μL fresh medium containing 3 μL ^35S-methionine was added to each well). Note that cells were not starved in methionine-free media before labeling with ^35S-methionine for monitoring protein synthesis. The labeled cells were then washed twice with ice-cold PBS and lysed in 120 μL Laemmli Buffer. Lysates were transferred to 1.5 mL eppendorf tubes, boiled at 95°C for 5 min, sonicated and resolved on Bolt SDS-PAGE 4%–12% Bis-Tris gels (ThermoFisher Scientific). Gels were then stained with InstantBlue (Expedeon) and after the gels had been imaged they were transferred to a 20% ethanol, 7% acetic acid, 4% glycerol solution for 10 min. This was to prevent the gels from cracking while drying. The gels were transferred to filter paper and dried using a gel dryer. The gels were then exposed to a Storage Phosphor Screen (GE Healthcare) and analyzed by phosphorimaging using a Typhoon Imager Scanner (GE Healthcare).

R15B^340–698 = biological target: T2, R15B^340–698 (Homo sapiens, UniProt Q5SWA1); assay: eIF2α pull down with MBP-tagged R15B; format: biochemical; details: Raphin1 200 μM, P-eIF2α 1 μM
T2 construct: made in house; host or cells: E. coli BL21-Gold (DE3) pLysS
T2 sequence (Q5SWA1 340-698): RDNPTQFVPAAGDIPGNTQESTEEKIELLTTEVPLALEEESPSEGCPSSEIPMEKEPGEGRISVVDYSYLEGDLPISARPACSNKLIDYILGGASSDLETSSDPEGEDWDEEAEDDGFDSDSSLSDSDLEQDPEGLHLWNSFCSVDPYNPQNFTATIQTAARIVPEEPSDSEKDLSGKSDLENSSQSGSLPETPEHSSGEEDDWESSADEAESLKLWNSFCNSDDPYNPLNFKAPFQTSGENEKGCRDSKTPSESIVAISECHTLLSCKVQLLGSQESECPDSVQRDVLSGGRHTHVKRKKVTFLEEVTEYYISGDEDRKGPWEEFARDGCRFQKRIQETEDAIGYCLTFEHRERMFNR
Method: Recombinant eIF2α was produced as described in [Ito et al. (2004)] and pull down experiments were carried out as previously described ([Carrara et al., 2017]). Amylose beads (New England BioLabs) were pre-equilibrated with interaction buffer (50 mM Tris pH 7.4, 200 mM NaCl, 0.05% Tween20). 20 μL amylose beads were incubated with purified MBP-tagged R15s (200 nM), P-eIF2α (1 μM) as appropriate, plus 200 μM Raphin1, or DMSO vehicle in a total volume of 200 μL. Input samples (5%) was removed at this step, and added to 4% SDS-Laemmli sample buffer. Beads were incubated for 10 min at 4°C with 20 rpm gentle rotation. The beads were washed 5 × 1 mL with interaction buffer, transferred to a fresh tube and finally resuspended with 50 μL 4% SDS-Laemmli sample buffer. Eluded beads were boiled and then run on 4%–12% NuPAGE Bis-Tris gels (ThermoFisher Scientific). Anti-MBP HRP (New England BioLabs (#E8038); 1:5,000) (to probe for R15s) and anti-eIF2α (AbCam (#ab26197); 1:1,000) antibodies were used for immunoblotting analyses of samples.

[2] = biological target: Adrenergic α2A (FAST-006A) receptor (Homo sapiens, UniProt P08913); assay: α2-adrenergic activity in cells expressing recombinant receptor (Euroscreen); format: cell-based; details: agonist testing, also videos of mice at 10 mg/kg
Sequence of Adrenergic α2A (FAST-006A) receptor (P08913 whole entry): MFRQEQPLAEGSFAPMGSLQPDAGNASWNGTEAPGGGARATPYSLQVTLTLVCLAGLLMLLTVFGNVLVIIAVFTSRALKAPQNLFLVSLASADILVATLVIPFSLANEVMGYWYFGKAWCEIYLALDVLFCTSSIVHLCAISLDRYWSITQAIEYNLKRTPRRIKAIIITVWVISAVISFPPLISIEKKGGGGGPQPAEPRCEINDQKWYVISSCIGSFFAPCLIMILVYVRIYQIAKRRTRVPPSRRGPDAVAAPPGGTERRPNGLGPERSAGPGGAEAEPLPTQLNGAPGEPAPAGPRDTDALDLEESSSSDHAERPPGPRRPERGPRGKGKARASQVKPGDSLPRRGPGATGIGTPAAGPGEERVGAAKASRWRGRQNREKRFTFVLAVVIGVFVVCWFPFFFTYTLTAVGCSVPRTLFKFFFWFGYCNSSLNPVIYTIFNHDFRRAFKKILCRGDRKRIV
Method: α2-adrenergic activity was measured by Euroscreen. Adrenergic α2A (FAST-006A) receptor cells grown 18 hr prior to the test in media without antibiotics were detached by gentle flushing with PBS-EDTA (5 mM EDTA), recovered by centrifugation and re-suspended in “assay buffer” (DMEM/HAM’s F12 with HEPES + 0.1% BSA protease free). Cells were incubated at RT for at least 4 hr with Coelenterazine h (Molecular Probes). Dose response curves with the reference compounds were performed before testing the compounds. For agonist testing, 50 μL of cell suspension was mixed with 50 μL of test compound or reference agonist plated in a 96-well plate. The resulting emission of light was recorded using the Hamamatsu Functional Drug Screening System 6000 (FDSS 6000). Agonist activity of test compound was expressed as a percentage of the activity of the reference agonist at its EC100 concentration.

[3] = Pharmacokinetics after single oral administration in mice; format: in vivo; details: mouse
Method: The acetate salts of Raphin1 or GBZ were dissolved in water and sonicated for 10 min. The solution was aliquoted and kept at −20°C until use. Once thawed a tube was kept at 4°C and used within 24 hr. The compounds were administered by oral gavage.
Raphin1 was administered at 2 mg/kg (unless otherwise specified). Mice received a single dose or were treated chronically – one time per day. Control mice were treated with vehicle (water) only.
Pharmacokinetics studies were performed by XenoGesis Ldt. Raphin1 was administrated orally in 6 weeks old treatment- and test-naive C57BL/6J males. Plasma samples were prepared by protein precipitation with methanol containing internal standards. Tissues were weighed and prepared by homogenization (1:3 in phosphate buffered saline) and protein precipitated with methanol containing internal standard. Following the addition of methanol, plasma and tissue samples were placed at −20°C for ≥ 1 hr (or overnight) to allow proteins to precipitate. The samples were then centrifuged at 2,500 x g (3,400 rpm) for 20 min at 4°C. The supernatants were analyzed by LC-MS/MS.

R15A = R15A (Homo sapiens, UniProt O75807); assay: Limited trypsin digestion of R15A; design: cDNAs encoding amino acids 325-636 of R15A and 340-698 of R15B were cloned into pMAL-c5x; made in house; host or cells: E. coli BL21-Gold (DE3) pLysS; details: R15 3 μM, compound 100 μM, trypsin 5 nM, 5 min, 22°C
Sequence of R15A (O75807 325-636, stated change not applied): as the sequence (O75807 325-636, stated change not applied) above
Method: Reactions were initiated by addition of 5 nM of trypsin from bovine pancreas (Sigma-Aldrich), made up in PBS, and allowed to proceed for 5 min at 22°C, with shaking at 350 rpm. […] Proteins were visualized by staining with InstantBlue Protein Stain (Expedeon).

## [H]/N=C(\N)NN=Cc1cccc(Cl)c1Cl [Raphin1, (E)-2-(2,3-dichlorobenzylidene)hydrazine-1-carboximidamide]
[1]
  Kd: 977 nM
HeLa cells; 20 μM
  Protein synthesis (in words): persistent inhibition
HeLa cells; Raphin1 10 μM in the presence of the R15A inhibitor GBZ 10 μM
  Raphin1-induced eIF2α phosphorylation and translation attenuation: persisted
HeLa cells; unstressed, 10 μM
  Protein synthesis (in words): decreased
R15B^340–698
  Recruitment of eIF2α to R15B: decreased
[2]
  α2-adrenergic activity: lacked
[3]; male, C57BL/6J, brain, single oral dose 2 mg/kg
  half-life: 4 to 6 h
[3]
  Oral bioavailability (in words): orally bioavailable
[3]; single oral dose 2 mg/kg
  Blood-brain barrier crossing: crossed the blood-brain barrier
  Peak concentration in the brain: ~1.5 µM
R15A
  Protease sensitivity of R15A (limited proteolysis, conformational change): no effect
